Literature values as cited in PMC3962266 (Journal of medicinal chemistry, 2013).
Values belong to the compound of their own block, whether it stands above or below them.

Tests used:
[1] = not given; remark: listed apart in the source
[2] = not given; remark: listed apart in the source

Further increase of bleeding risk on addition as combination therapy (added to aspirin): 1%
Compound: COC(=O)[C@H](c1ccccc1Cl)N1CCc2sccc2C1 [clopidogrel]

Pharmacokinetic (PK) properties [1]: poor pharmacokinetic (PK) properties
Solubility [2]: low solubility
Compound: CCCCNc1ncc2c(-c3ccc(S(=O)(=O)N4CCOCC4)cc3)nn(C3CCC(O)CC3)c2n1 (stereo not shown) [UNC1062]

Baseline major bleeding risk (gastrointestinal or intracranial): 1–4%
Compound: CC(=O)Oc1ccccc1C(=O)O [aspirin]
